From PubChem BioAssay AID328 (DTP/NCI, 2004)
Several values for one entry are separate records, joined by “and”; a condition that tells them apart may be missing. Equal values may be shown once. Inconclusive results and toxic doses are left out. Starred links: 1 amine or outer side, 2 acyl side, 3 side chain; linkers in the order of their positions; H or OH if unused. Positions of bridges follow the written chain, without caps; N, C: chain ends. Non-standard residues stand in square brackets, D forms with d. Residues, ends and D or L forms follow the SMILES beside them. Chains are numbered I, II in the order given. Actinocin(1to9) = Cc1c2oc3c(C)ccc(C(=O)[*:2])c3nc-2c(C(=O)[*:1])c(N)c1=O; X3 = O=C1CC(C(=O)[*:2])N([*:1])C1; NMeV = CN[CH](C(=O)O)C(C)C; Sar = CNCC(=O)O

Test system: BDF1 mice, P388 leukemia ip, median survival T/C
Experiment: NCI In Vivo Anticancer Drug Screen. Data for tumor model P388 Leukemia (intraperitoneal) in B6D2F1 (BDF1) mice
Details: endpoint: median survival time, higher = longer survival
How it was run: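 Antitumour effect was judged in vivo: survival in drug-treated mice, normalised to that of vehicle-dosed controls, gives the reported T/C.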

[1] = dose: 100.0 mg/kg/injection, schedule: Q01DX009 (ip), vehicle: saline with Tween-80
[2] = dose: 200.0 mg/kg/injection, schedule: Q01DX009 (ip), vehicle: saline with Tween-80
[3] = dose: 12.5 mg/kg/injection, schedule: Q01DX009 (ip), vehicle: saline with Tween-80
[4] = dose: 25.0 mg/kg/injection, schedule: Q01DX009 (ip), vehicle: saline with Tween-80
[5] = dose: 50.0 mg/kg/injection, schedule: Q01DX009 (ip), vehicle: saline with Tween-80
[6] = dose: 100.0 mg/kg/injection, schedule: Q04DX003 (ip), vehicle: Klucel (hydroxypropylcellulose) (HPC)
[7] = dose: 25.0 mg/kg/injection, schedule: Q04DX003 (ip), vehicle: saline with Tween-80
[8] = dose: 50.0 mg/kg/injection, schedule: Q04DX003 (ip), vehicle: saline with Tween-80
[9] = dose: 100.0 mg/kg/injection, schedule: Q04DX003 (ip), vehicle: saline with Tween-80
[10] = dose: 200.0 mg/kg/injection, schedule: Q04DX003 (ip), vehicle: saline with Tween-80
[11] = dose: 400.0 mg/kg/injection, schedule: Q04DX003 (ip), vehicle: saline with Tween-80
[12] = dose: 100.0 mg/kg/injection, schedule: Q04DX003 (ip), vehicle: saline sonified
[13] = dose: 200.0 mg/kg/injection, schedule: Q04DX003 (ip), vehicle: saline sonified
[14] = dose: 400.0 mg/kg/injection, schedule: Q04DX003 (ip), vehicle: saline sonified

## Cc1c2oc3c(C)ccc(C(=O)NC4C(=O)NC(C(C)C)C(=O)N5CCCC5C(=O)N(C)CC(=O)N(C)C(C(C)C)C(=O)OC4C)c3nc-2c(C(=O)NC2C(=O)NC(C(C)C)C(=O)N3CC(=O)CC3C(=O)N(C)CC(=O)N(C)C(C(C)C)C(=O)OC2C)c(N)c1=O (configuration not stated) (I: TV[X3][Sar][NMeV] / II: TVP[Sar][NMeV]; ester I:1-I:C, II:1-II:C; linker I:N-II:N via Actinocin(1to9); configuration not given here)
dose: 1.6 micrograms/kg/injection, schedule: Q01DX009 (ip), vehicle: water
  T/C: 120 % of control
dose: 4.7 micrograms/kg/injection, schedule: Q04DX003 (ip), vehicle: water
  T/C: 163 % of control
dose: 9.4 micrograms/kg/injection, schedule: Q04DX003 (ip), vehicle: water
  T/C: 162 % of control
dose: 12.5 micrograms/kg/injection, schedule: Q01DX009 (ip), vehicle: water
  T/C: 172 % of control
dose: 25.0 micrograms/kg/injection, schedule: Q01DX001 (ip), vehicle: water
  T/C: 155 % of control
dose: 25.0 micrograms/kg/injection, schedule: Q01DX009 (ip), vehicle: water
  T/C: 120 % of control
dose: 37.5 micrograms/kg/injection, schedule: Q04DX003 (ip), vehicle: water
  T/C: 175 % of control
dose: 50.0 micrograms/kg/injection, schedule: Q01DX001 (ip), vehicle: water
  T/C: 155 % of control
dose: 75.0 micrograms/kg/injection, schedule: Q04DX003 (ip), vehicle: water
  T/C: 86 % of control

## COC(=O)C1=C(C)NC2(C)SC1C(C)C2C(=O)OC (configuration not stated)
[1]
  T/C: 107 % of control
[2]
  T/C: 98 % of control

## O=C(Nc1cc(C(F)(F)F)ccc1Cl)ON1CCCCC1
[3]
  T/C: 107 % of control
[4]
  T/C: 94 % of control
[5]
  T/C: 114 % of control and 124 % of control
[1]
  T/C: 100 % of control and 102 % of control
[2]
  T/C: 91 % of control

## c1ccc2c(c1)CCc1cc3c(nc1-2)-c1ccccc1CC3
[6]
  T/C: 112 % of control
dose: 400.0 mg/kg/injection, schedule: Q04DX003 (ip), vehicle: Klucel (hydroxypropylcellulose) (HPC)
  T/C: 112 % of control

## COC1=C(N2CC2)C(=O)C(OC)=C(N2CC2)C1=O
dose: 0.5 mg/kg/injection, schedule: Q01DX009 (ip), vehicle: Klucel (hydroxypropylcellulose) (HPC)
  T/C: 217 % of control
dose: 0.5 mg/kg/injection, schedule: Q01DX009 (ip), vehicle: saline
  T/C: 162 % of control
dose: 0.8 mg/kg/injection, schedule: Q04DX003 (ip), vehicle: saline with Tween-80
  T/C: 170 % of control
dose: 1.0 mg/kg/injection, schedule: Q01DX009 (ip), vehicle: Klucel (hydroxypropylcellulose) (HPC)
  T/C: 234 % of control
dose: 1.0 mg/kg/injection, schedule: Q01DX009 (ip), vehicle: saline with Tween-80
  T/C: 179 % of control
dose: 1.0 mg/kg/injection, schedule: Q01DX009 (ip), vehicle: saline
  T/C: 201 % of control
dose: 1.8 mg/kg/injection, schedule: Q04DX003 (ip), vehicle: saline with Tween-80
  T/C: 154 % of control
dose: 2.0 mg/kg/injection, schedule: Q01DX009 (ip), vehicle: Klucel (hydroxypropylcellulose) (HPC)
  T/C: 285 % of control
dose: 2.0 mg/kg/injection, schedule: Q01DX009 (ip), vehicle: saline with Tween-80
  T/C: 91 % of control
dose: 2.0 mg/kg/injection, schedule: Q01DX009 (ip), vehicle: saline
  T/C: 252 % of control
dose: 2.6 mg/kg/injection, schedule: Q04DX003 (ip), vehicle: saline with Tween-80
  T/C: 173 % of control
dose: 4.0 mg/kg/injection, schedule: Q01DX009 (ip), vehicle: Klucel (hydroxypropylcellulose) (HPC)
  T/C: 326 % of control
dose: 4.0 mg/kg/injection, schedule: Q01DX009 (ip), vehicle: saline
  T/C: 92 % of control
dose: 4.0 mg/kg/injection, schedule: Q04DX003 (ip), vehicle: saline with Tween-80
  T/C: 165 % of control
dose: 6.0 mg/kg/injection, schedule: Q04DX003 (ip), vehicle: saline with Tween-80
  T/C: 200 % of control

## c1ccc(CN2CCCCC2)nc1
dose: 5.0 mg/kg/injection, schedule: Q01DX009 (ip), vehicle: Klucel (hydroxypropylcellulose) (HPC)
  T/C: 105 % of control
dose: 5.0 mg/kg/injection, schedule: Q04DX003 (ip), vehicle: Klucel (hydroxypropylcellulose) (HPC)
  T/C: 104 % of control
dose: 10.0 mg/kg/injection, schedule: Q01DX009 (ip), vehicle: Klucel (hydroxypropylcellulose) (HPC)
  T/C: 100 % of control
dose: 10.0 mg/kg/injection, schedule: Q04DX003 (ip), vehicle: Klucel (hydroxypropylcellulose) (HPC)
  T/C: 100 % of control
dose: 20.0 mg/kg/injection, schedule: Q01DX009 (ip), vehicle: Klucel (hydroxypropylcellulose) (HPC)
  T/C: 105 % of control
dose: 20.0 mg/kg/injection, schedule: Q04DX003 (ip), vehicle: Klucel (hydroxypropylcellulose) (HPC)
  T/C: 100 % of control

## COc1ccc2c(c1O)-c1cccc3c1[C@@H](C2)N(CCCl)CC3
[7]
  T/C: 161 % of control
[8]
  T/C: 161 % of control

## CN(C)CC(C(=O)Cc1ccccc1)c1ccccc1 (configuration not stated)
[5]
  T/C: 102 % of control
[1]
  T/C: 111 % of control

## [Cu+2].[O-]c1ccc(Br)c2cccnc12.[O-]c1ccc(Br)c2cccnc12
dose: 12.5 mg/kg/injection, schedule: Q04DX003 (ip), vehicle: saline with Tween-80
  T/C: 100 % of control
[7]
  T/C: 90 % of control
[8]
  T/C: 95 % of control
dose: 75.0 mg/kg/injection, schedule: Q04DX003 (ip), vehicle: saline with Tween-80
  T/C: 90 % of control

## COc1cc2c3cc1Oc1c(OC)c(OC)cc4c1C(Cc1ccc(O)c(c1)-c1cc(ccc1OC)CC3N(C)CC2)N(C)CC4 (configuration not stated)
dose: 1.56 mg/kg/injection, schedule: Q01DX009 (ip), vehicle: Klucel (hydroxypropylcellulose) (HPC)
  T/C: 91 % of control
dose: 3.13 mg/kg/injection, schedule: Q01DX009 (ip), vehicle: Klucel (hydroxypropylcellulose) (HPC)
  T/C: 87 % of control
dose: 6.25 mg/kg/injection, schedule: Q01DX009 (ip), vehicle: Klucel (hydroxypropylcellulose) (HPC)
  T/C: 87 % of control
dose: 50.0 mg/kg/injection, schedule: Q01DX009 (ip), vehicle: carboxymethylcellulose (CMC)
  T/C: 88 % of control

## CC(=O)Nc1ccc([N+](=O)[O-])c(NC(C)=O)n1
dose: 50.0 mg/kg/injection, schedule: Q04DX003 (ip), vehicle: Klucel (hydroxypropylcellulose) (HPC)
  T/C: 110 % of control
[6]
  T/C: 105 % of control
dose: 200.0 mg/kg/injection, schedule: Q04DX003 (ip), vehicle: Klucel (hydroxypropylcellulose) (HPC)
  T/C: 100 % of control

## COc1ccc(CCNC(=O)Cc2ccc(OC)c(OC)c2)cc1OC
[9]
  T/C: 100 % of control
[10]
  T/C: 95 % of control
[11]
  T/C: 100 % of control

## O=C(Cn1ccc(O)cc1=O)N1CCOCC1
dose: 100.0 mg/kg/injection, schedule: Q01DX009 (ip), vehicle: water
  T/C: 105 % of control
dose: 200.0 mg/kg/injection, schedule: Q01DX009 (ip), vehicle: water
  T/C: 104 % of control
dose: 400.0 mg/kg/injection, schedule: Q01DX009 (ip), vehicle: water
  T/C: 104 % of control

## CC1OC(O[C@@H]2C=C3CC[C@@H]4[C@H](CC[C@]5(C)[C@@H](c6ccc(=O)oc6)CC[C@]45O)[C@@]3(C)CC2)C(O)C(O)C1O (some centres not stated)
dose: 2.5 mg/kg/injection, schedule: Q01DX010 (ip), vehicle: carboxymethylcellulose (CMC)
  T/C: 105 % of control
dose: 5.0 mg/kg/injection, schedule: Q01DX010 (ip), vehicle: carboxymethylcellulose (CMC)
  T/C: 105 % of control

## O=[N+]([O-])c1ccc(S(=O)(=O)OCc2cccc(OS(=O)(=O)c3ccc([N+](=O)[O-])cc3)c2)cc1
[12]
  T/C: 105 % of control
[13]
  T/C: 116 % of control
[14]
  T/C: 105 % of control

## C/C(=N\OCc1cc2c(cc1Cl)OCO2)C(=O)O
[12]
  T/C: 113 % of control
[13]
  T/C: 109 % of control
[14]
  T/C: 109 % of control

## c1ccc(C2C3(c4ccccc4)C4(c5ccccc5)OC(c5ccccc5)(c5ccccc54)C23c2ccccc2)cc1 (configuration not stated)
dose: 50.0 mg/kg/injection, schedule: Q01DX009 (ip), vehicle: Klucel (hydroxypropylcellulose) (HPC)
  T/C: 91 % of control
dose: 100.0 mg/kg/injection, schedule: Q01DX009 (ip), vehicle: Klucel (hydroxypropylcellulose) (HPC)
  T/C: 103 % of control
dose: 200.0 mg/kg/injection, schedule: Q01DX009 (ip), vehicle: Klucel (hydroxypropylcellulose) (HPC)
  T/C: 92 % of control

## Cc1c(Cl)cccc1NC(=O)Nc1cccc2ccccc12
[9]
  T/C: 91 % of control
[10]
  T/C: 100 % of control
[11]
  T/C: 108 % of control

## Nc1ncncc1-c1cccc2ccccc12
[5]
  T/C: 108 % of control
[1]
  T/C: 99 % of control
[2]
  T/C: 108 % of control

## Cc1nc(N)c(N)nc1C
[3]
  T/C: 95 % of control
[4]
  T/C: 88 % of control
[7]
  T/C: 102 % of control
[5]
  T/C: 107 % of control
[8]
  T/C: 101 % of control
